Data: article PMC8231256, “Influence of N-Methylation and Conformation on Almiramide Anti-Leishmanial Activity” (Molecules, 2021)
Read-outs that look alike come from different tables or passages of the source.

Assays:
[1] = test system: L. infantum (MHOM/MA/67/ITMAP-263) wild-type strain (WT) promastigotes; format: cell-based, Leishmania infantum; settings: for Selectivity Index: SI = CC50 (LM-1 macrophage)/EC50 Ldi WT; for EC50: 72 h
Protocol: (§1) The biological activity of peptides 15–37 was assessed against the L. infantum wild-type stain (WT), as well as mutants resistant to the common anti-leishmanial agents, such as antimony (Sb^III), amphotericin B (AmB) and miltefosine (MF): Sb2000.1, AmB1000.1 and MF200.5. Activity against Leishmania promastigotes was determined by monitoring the replication of parasites after 72 h of incubation at 25 °C in the presence of increasing concentrations of the different peptides […] and reported as EC50 values (Table 2). […] The greatest potencies were observed using analogs against the amphotericin B resistant strain (e.g., AmB1000.1).
(§2) The L. infantum (MHOM/MA/67/ITMAP-263) wild-type stain (WT), as well as the resistant mutants Sb2000.1, AmB1000.1 and MF200.5 [53, 54, 55, 56, 57, 58], resistant to antimony (Sb^III), amphotericin B (AmB) and miltefosine (MF), respectively, were grown in M199 medium at 25 °C supplemented with 10% fetal bovine serum, 5 μg/mL of haemin at pH 7.0 and 2000 μM Sb (Potassium antimonyl tartrate, Sigma-Aldrich), 200 μM of MF (Miltefosine, Cayman Chem., Ann Arbor, MI, USA) or 1 μM AmB (Amphotericin B solution, Sigma, Oakville, ON, Canada). Antileishmanial values were determined in Leishmania promastigotes by monitoring the replication of parasites after 72 h of incubation at 25 °C in the presence of increasing concentrations of the different peptides by measuring A600 using a Cytation 5 machine (BioTek, Winooski, VT, USA). EC50 values were calculated based on dose–response curves analyzed by non-linear regression with GraphPad Prism 8.4.3 software (GraphPad Software, La Jolla, CA, USA). An average of at least three independent biological replicates from independent cultures was performed for each determination.

[2] = test system: L. infantum AmB1000.1 (resistant to amphotericin B) promastigotes; format: cell-based, Leishmania infantum; settings: for EC50: strain resistant to 1 µM amphotericin B, promastigotes, 72 h, 25 °C, 95% CI in brackets (n = 3), read-out: Ldi AmB-Res EC50
Protocol: as §1, §2

[3] = test system: L. infantum MF200.5 (resistant to miltefosine) promastigotes; format: cell-based, Leishmania infantum; settings: for EC50: strain resistant to 200 µM miltefosine, promastigotes, 72 h, 25 °C, 95% CI in brackets (n = 3), read-out: Ldi MF-Res EC50
Protocol: as §1, §2

[4] = test system: L. infantum Sb2000.1 (resistant to antimony) promastigotes; format: cell-based, Leishmania infantum; settings: strain resistant to 2 mM antimonials, 72 h, 25 °C, 95% CI in brackets (n = 3), read-out: Ldi Sb-Res EC50
Protocol: as §1, §2

[5] = LM-1 macrophage cytotoxicity (Alamar Blue); format: cell-based, murine; settings: mouse
Protocol: The host cytotoxicity was evaluated by monitoring the survival rates of murine LM-1 macrophage at different concentrations of peptides 15–37 ([…]) over 24 h. […] Exceptionally, MeAla peptide amide 21 was 3.2- to 8-fold less toxic than the other peptide analogs.
The LM1- macrophages were grown in DMEM supplemented with 10% heat inactivated FBS. Cells at the concentration of 100,000 cells/mL were cultivated for 24 h in a 96-well plate (37 °C, 5% CO2). The culture medium was removed and fresh medium containing the appropriate drug and concentration was added to the cells, which were incubated for 24 h (37 °C, 5% CO2). Seven different concentrations were tested ([…]) as well as controls (without drugs). After 24 h, the culture medium was removed and replaced for fresh medium containing 10% Alamar Blue (Thermo Fisher Scientific, Waltham, MA, USA) and incubated for 2 h (37 °C, 5% CO2). Readings at 570 and 600 nm (Asys UVM340 Plate reader, Biochrom, Cambridge, UK) were taken and analyzed according to the manufacturer protocol. Survival rates at different drug concentrations and CC50 values were calculated using the Excel software.

Leishmania donovani = test system: Leishmania donovani; set-up: method as in PMID 20441198; settings: cited from earlier work; for selectivity index (CC50/EC50): Vero kidney cells CC50 vs L. donovani
[6] = promastigotes, 25 °C, 95% confidence interval in brackets (n = 3), read-out: Ldi WT EC50
[7] = MHOM/MA/67/ITMAP-263) wild-type strain (WT) promastigotes

Row | Compound | Selectivity Index [1] | EC50 [1, 6] | EC50 [2] | EC50 [3] | EC50 [4] | CC50 at 24 h ([5]; LM-1 macrophages, 24 h, Alamar Blue, read-out: CC50) | EC50 [1, 7] | CC50 at 24 h [5] | fold more active than nonmethylated counterpart ([2]; AmB1000.1, 17 vs 16, 35 vs 31) | fold more active than nonmethylated counterpart ([3]; MF200.5, 35 vs 31) | selectivity index (CC50/EC50) (Leishmania donovani) | activity against Leishmania donovani (Leishmania donovani)
1 | C#CCCCCC(=O)N(C)[C@H](C(=O)N(C)[C@H]1CCN([C@H](C(=O)N(C)[C@@H](C)C(=O)N(C)[C@@H](Cc2ccccc2)C(=O)O)C(C)C)C1=O)C(C)C [peptide 27, HCC(CH2)4CO-Val(Me)-Agl(Me)-Val-Ala(Me)-Phe(Me)-OH] | 1.0 | 284 µM | > 300 µM | > 300 µM | 296 µM | 295 µM | – | – | – | – | – | –
2 | C#CCCCCC(=O)N(C)[C@H](C(=O)N(C)[C@H](C(=O)N(C)[C@H]1CCN([C@@H](C)C(=O)N(C)[C@@H](Cc2ccccc2)C(=O)O)C1=O)C(C)C)C(C)C [peptide 28, HCC(CH2)4CO-Val(Me)-Val(Me)-Agl(Me)-Ala-Phe(Me)-OH] | 0.9 | – | > 300 µM | 282 µM | 250 µM | – | 255 µM | 245 µM | – | – | – | –
3 | C#CCCCCC(=O)N[C@H]1CCN([C@H](C(=O)N[C@H](C(=O)N[C@@H](C)C(=O)N[C@@H](Cc2ccccc2)C(=O)NCCCCCCN)C(C)C)C(C)C)C1=O [peptide 29, HCC(CH2)4CO-Agl-Val-Val-Ala-Phe-NH(CH2)6NH2] | 5.5 | – | 72 µM | 67.9 µM | 90.4 µM | – | 75 µM | 416 µM | – | – | – | –
4 | C#CCCCCC(=O)N[C@H](C(=O)N[C@H]1CCN([C@H](C(=O)N[C@@H](C)C(=O)N[C@@H](Cc2ccccc2)C(=O)NCCCCCCN)C(C)C)C1=O)C(C)C [peptide 30, HCC(CH2)4CO-Val-Agl-Val-Ala-Phe-NH(CH2)6NH2] | 8.6 | – | 114 µM | 129 µM | 37.6 µM | – | 47.4 µM | 407 µM | – | – | – | –
5 | C#CCCCCC(=O)N[C@H](C(=O)N[C@H](C(=O)N[C@H]1CCN([C@@H](C)C(=O)N[C@@H](Cc2ccccc2)C(=O)NCCCCCCN)C1=O)C(C)C)C(C)C [peptide 31, HCC(CH2)4CO-Val-Val-Agl-Ala-Phe-NH(CH2)6NH2] | 6.0 | – | 130 µM | 126 µM | 48.8 µM | – | 64.6 µM | 389 µM | – | – | – | –
6 | C#CCCCCC(=O)N[C@H](C(=O)N[C@H](C(=O)N[C@H](C(=O)N[C@H]1CCN([C@@H](Cc2ccccc2)C(=O)NCCCCCCN)C1=O)C(C)C)C(C)C)C(C)C [peptide 32, HCC(CH2)4CO-Val-Val-Val-Agl-Phe-NH(CH2)6NH2] | 4.3 | – | 90.1 µM | 84.2 µM | 87.8 µM | – | 91.2 µM | 389 µM | – | – | – | –
7 | C#CCCCCC(=O)N(C)[C@H]1CCN([C@H](C(=O)N(C)[C@H](C(=O)N(C)[C@@H](C)C(=O)N(C)[C@@H](Cc2ccccc2)C(=O)NCCCCCCN)C(C)C)C(C)C)C1=O [peptide 33, HCC(CH2)4CO-Agl(Me)-Val-Val(Me)-Ala(Me)-Phe(Me)-NH(CH2)6NH2] | 3.4 | – | 184 µM | 191 µM | 140 µM | – | 119 µM | 407 µM | – | – | – | –
8 | C#CCCCCC(=O)N(C)[C@H](C(=O)N(C)[C@H](C(=O)N(C)[C@H]1CCN([C@@H](C)C(=O)N(C)[C@@H](Cc2ccccc2)C(=O)NCCCCCCN)C1=O)C(C)C)C(C)C [peptide 35, HCC(CH2)4CO-Val(Me)-Val(Me)-Agl(Me)-Ala-Phe(Me)-NH(CH2)6NH2] | 4.7 | – | 92 µM | 85.3 µM | 81.5 µM | – | 78.6 µM | 371 µM | 1.4 fold | 1.5 fold | – | –
9 | C#CCCCCC(=O)Nn1c(C)cn([C@H](C(=O)N[C@H](C(=O)N[C@@H](C)C(=O)N[C@@H](Cc2ccccc2)C(=O)O)C(C)C)C(C)C)c1=O [peptide 36, HCC(CH2)4CO-(5-Me)Nai-Val-Val-Ala-Phe-OH] | – | > 300 µM | > 300 µM | > 300 µM | > 300 µM | – | – | 436 µM | – | – | – | –
10 | C#CCCCCC(=O)N[C@H](C(=O)Nn1c(C)cn([C@H](C(=O)N[C@@H](C)C(=O)N[C@@H](Cc2ccccc2)C(=O)O)C(C)C)c1=O)C(C)C [peptide 37, HCC(CH2)4CO-Val-(5-Me)Nai-Val-Ala-Phe-OH] | – | > 300 µM | > 300 µM | > 300 µM | > 300 µM | – | – | 407 µM | – | – | – | –
11 | Almiramide B [compound 2] | – | – | – | – | – | – | – | – | – | – | 21.8 | low μM activity
12 | Almiramide C [compound 3] | – | – | – | – | – | – | – | – | – | – | 17.4 | low μM activity
13 | almiramide A [compound 1] | – | – | – | – | – | – | – | – | – | – | – | inactive
